According to ChEMBL document CHEMBL4321832 (J Med Chem, 2019):

Experiments:
[1] = Lipophilicity, logP of compound; format: physicochemical; conditions: octanol/water
A549 = test: Antiproliferative activity against human A549 cells assessed as reduction in cell viability incubated for 24 hrs by BrdU based ELISA; format: functional; conditions: A549, 24 h
MCF7 = test: Antiproliferative activity against human MCF7 cells assessed as reduction in cell viability incubated for 24 hrs by BrdU based ELISA; format: functional; conditions: MCF7, 24 h
MDA-MB-436 = test: Antiproliferative activity against human MDA-MB-436 cells assessed as reduction in cell viability incubated for 24 hrs by BrdU based ELISA; format: functional; conditions: MDA-MB-436, 24 h
A-431 = test: Antiproliferative activity against human A431 cells assessed as reduction in cell viability incubated for 24 hrs by BrdU based ELISA; format: functional; conditions: A-431, 24 h
[2] = target: T1, Lanosterol 14-alpha demethylase (Homo sapiens, UniProt Q16850); test: Binding affinity to recombinant full length human CYP51 expressed in Escherichia coli incubated for 30 sec using [3H] labelled substrate by HPLC analysis
T1 sequence (Q16850 whole entry): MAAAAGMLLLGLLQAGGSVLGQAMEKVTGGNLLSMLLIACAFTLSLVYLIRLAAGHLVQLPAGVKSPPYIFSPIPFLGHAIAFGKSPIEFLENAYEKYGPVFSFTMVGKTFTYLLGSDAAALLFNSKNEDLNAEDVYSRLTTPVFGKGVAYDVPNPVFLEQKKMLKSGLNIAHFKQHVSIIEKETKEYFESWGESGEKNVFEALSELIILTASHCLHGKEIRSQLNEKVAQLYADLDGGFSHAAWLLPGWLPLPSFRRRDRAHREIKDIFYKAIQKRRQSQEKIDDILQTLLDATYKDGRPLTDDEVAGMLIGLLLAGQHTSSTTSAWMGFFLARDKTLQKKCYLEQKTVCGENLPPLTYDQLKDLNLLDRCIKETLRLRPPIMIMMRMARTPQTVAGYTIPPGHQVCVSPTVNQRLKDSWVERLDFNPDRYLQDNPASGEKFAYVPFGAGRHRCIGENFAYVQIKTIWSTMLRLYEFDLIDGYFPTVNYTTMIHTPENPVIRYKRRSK

[3] = target: T1, Lanosterol 14-alpha demethylase; test: Inhibition of recombinant full length human CYP51 expressed in Escherichia coli incubated for 1 min using [3H] lanosterol as substrate by HPLC analysis
[4] = target: T2, CYP51 (lanosterol 14-alpha demethylase) (Homo sapiens, UniProt Q16850); test: Inhibition of recombinant full length human CYP51 expressed in Escherichia coli at inhibitor/enzyme ratio 50/1 incubated for 1 hr using [3H] lanosterol as substrate by HPLC analysis relative to control; set-up: concentration or dose not given beside the values; conditions: probe [3H] lanosterol
T2 sequence (Q16850 whole entry): T1 sequence (Q16850 whole entry)

[5] = target: T2, CYP51 (lanosterol 14-alpha demethylase); test: Inhibition of recombinant full length human CYP51 expressed in Escherichia coli at inhibitor/enzyme ratio 25/1 incubated for 1 hr using [3H] lanosterol as substrate by HPLC analysis relative to control; conditions: probe [3H] lanosterol
[6] = target: T1, Lanosterol 14-alpha demethylase; test: Inhibition of recombinant full length human CYP51 expressed in Escherichia coli incubated for 1 hr using [3H] lanosterol as substrate by HPLC analysis
[7] = Inhibition of human CYP51 T314I mutant expressed in Escherichia coli incubated for 1 hr using [3H] lanosterol as substrate by HPLC analysis

SMILES	logP ([1]; read-out: logP)	Kd [2]	IC50 [3]	inhibition at 1 h [4]	inhibition at 1 h [5]	IC50 [6]	logP [1]	IC50 [7]	EC50 (A549)	EC50 (MCF7)	EC50 (MDA-MB-436)	EC50 (A-431)
O=C(N[C@@H](Cn1ccnc1)c1ccc(-c2ccc(F)cc2)cc1F)c1ccc(-c2nnc(-c3ccccc3)o2)cc1	5.4	0.09 µM	< 0.5 µM	64%	33%	24.4 µM			10 to 30 µM	10 to 30 µM	10 to 30 µM	10 to 30 µM
O=C(N[C@@H](Cn1ccnc1)c1ccc(-c2ccc(F)cc2)cc1-c1ccco1)c1ccc(-c2nnc(-c3ccccc3)o2)cc1	5.8		5.2 µM	8%	0%	> 25 µM						
O=C(N[C@@H](Cn1ccnc1)c1ccc(-c2ccc(F)cc2)cc1-c1ccccc1)c1ccc(-c2nnc(-c3ccccc3)o2)cc1	5.3		1.5 µM	41%	0%	> 25 µM						
O=C(N[C@@H](Cn1ccnc1)c1ccc(-c2ccc(F)cc2)cc1Cl)c1ccc(-c2nnc(-c3cc(-c4ccccn4)ccc3F)o2)cc1	6.8			93%								
COc1ccc(-c2cc(-c3ccc(F)cc3)ccc2[C@H](Cn2ccnc2)NC(=O)c2ccc(-c3nnc(-c4ccccc4)o3)cc2)cc1	5.8		12 µM	0%	0%	> 25 µM						
O=C(N[C@@H](Cn1ccnc1)c1ccc(-c2ccc(F)cc2)c2ccccc12)c1ccc(-c2nnc(-c3ccccc3)o2)cc1	5.8		3 µM	1%	0%	> 25 µM						

Further lines, with some results ahead:

logP ([1]; read-out: logP)	Kd [2]	IC50 [3]	inhibition at 1 h [4]	inhibition at 1 h [5]	IC50 [6]	logP [1]	IC50 [7]	SMILES	EC50 (A549)	EC50 (MCF7)	EC50 (MDA-MB-436)	EC50 (A-431)
		< 0.5 µM	91%	73%	5.9 µM	6.9	2.1 µM	O=C(N[C@@H](Cn1ccnc1)c1ccc(-c2ccc(F)cc2)cc1Cl)c1ccc(-c2nnc(-c3ccccc3)o2)cc1				
6.8	0.15 µM	< 0.5 µM	96%	95%	< 1 µM			O=C(N[C@@H](Cn1ccnc1)c1ccc(-c2ccc(F)cc2)cc1Cl)c1ccc(-c2nnc(-c3cc(F)cc(-c4ccccn4)c3)o2)cc1				
5.4	0.13 µM	< 0.5 µM	89%	82%	3.6 µM			CS(=O)(=O)c1cc(Br)cc(-c2nnc(-c3ccc(C(=O)N[C@@H](Cn4ccnc4)c4ccc(-c5ccc(F)cc5)cc4Cl)cc3)o2)c1				
7.7	0.47 µM	< 0.5 µM	73%	25%	15 µM			O=C(N[C@@H](Cn1ccnc1)c1ccc(-c2ccc(F)cc2)cc1Cl)c1ccc(-c2nnc(-c3cc(Br)cc4ccccc34)o2)cc1				
5.3	0.02 µM	< 0.5 µM	90%	82%	4.4 µM			CS(=O)(=O)c1cc(-c2ccccn2)cc(-c2nnc(-c3ccc(C(=O)N[C@@H](Cn4ccnc4)c4ccc(-c5ccc(F)cc5)cc4Cl)cc3)o2)c1				
6.3	0.09 µM	< 0.5 µM	98%	98%	< 1 µM			O=C(N[C@@H](Cn1ccnc1)c1ccc(-c2ccc(F)cc2)cc1Cl)c1ccc(-c2nnc(-c3cc(F)cc(-c4ncncc4F)c3)o2)cc1				
